From PubChem BioAssay AID1963864 (Molecular Pharmacology Branch, DTP, NCI, 2024)
Where “and” joins values, the source holds several entries; their conditions need not be identical. Equal entries are not always repeated.

System: KRAS PDC multicell spheroid viability
Assay: Anticancer human tumor 521955-158-R6-J3-PDC patient-derived pancreatic carcinoma cell line growth inhibition [KRAS2]
Details: for viability, T/C: stronger effect = lower value
From the text: Multicellular complex tumor spheroid response to RAS pathway inhibitors in combination with a targeted agents in patient-derived cell lines with oncogenic KRAS variants from multiple cancer types
A high-throughput screen of multi-cell type tumor spheroids was designed to identify active combinations of targeted small molecules and KRAS pathway inhibitors. Complex spheroids include a stromal component modeled by human endothelial cells (HUVEC) and fibroblasts modeled by human mesenchymal stem cells (MSCs). The concentration ranges selected for each drug and investigational agent were based upon clinically achievable concentrations if the clinical Cmax of the agent was known.
Compounds. The drugs and investigational agents: BI-3406 (NSC825286), BAY-293 (NSC824723), batoprotafib (TNO155; NSC825523), sotorasib (AMG 510; NSC818433), MRTX1257 (NSC819558), elimusertib (BAY 1895344; NSC800525), molibresib (GSK525762; NSC774829), temuterkib (LY3214996; NSC803410), venetoclax (NSC766270), alisertib (NSC759677), olaparib (NSC753686), talazoparib (NSC767125), erdafitinib (NSC781556), ipatasertib (NSC767898), cabozantinib (NSC761068), nintedanib (NSC756659), abemaciclib (NSC768073), docetaxel (NSC628503), trametinib (NSC758246), and sapanisertib (NSC764658) were obtained from the National Cancer Institute (NCI) Developmental Therapeutics Program Chemical Repository. The FDA-approved anticancer drug set is available from the Developmental Therapeutics Program. […] The stock solutions were prepared in dimethyl sulfoxide (DMSO, Sigma-Aldrich, St. Louis, MO, cat. D2650) at 800-fold the tested concentration and stored at -70 degrees C prior to their use. All drugs and investigational agents were tested over a range starting from a high concentration at or near the clinical Cmax and decreasing in half-log increments. If the clinical Cmax for an agent had not been determined, the highest concentration tested was 10 microM.
Cell Culture. All cells were maintained in an incubator at 37 degrees C and 5% CO2 with 95% humidity. The PDC lines were cultured according to standard operating procedures established by the NCI PDMR (https://pdmr.cancer.gov/sops/default.htm). Briefly, all PDCs were thawed and cultured in Matrigel-coated flasks prepared with a working solution of 1X Ham's F-12 nutrient mix, without supplementation (Invitrogen, Waltham, MA, cat. 11765054), 100 U/mL penicillin-streptomycin (Invitrogen, cat. 15140122), and 2.5% Matrigel (Corning Inc., Corning, NY, cat. 354248) for the first three passages. All PDCs were cultured in complete DMEM/F-12 media containing advanced DMEM/F-12 (Invitrogen, cat. 12634028), 4.9% defined fetal bovine serum, heat inactivated (HyClone Laboratories Inc., Logan, UT, cat. SH30070.03HI), 389 ng/mL hydrocortisone (Sigma-Aldrich, cat. H4001), 9.7 ng/mL human EGF recombinant protein (Invitrogen, cat. PHG0313), 23.4 microg/mL adenine (Sigma-Aldrich, cat. A2786), 97.3 U/mL penicillin-streptomycin (Invitrogen, cat. 15140122), 1.9 mM L-glutamine (Invitrogen, cat. 25030081), and 9.7 microM Y-27632 dihydrochloride (Tocris Bioscience, Bristol, United Kingdom, cat. 1254). The PDCs were cultured in complete DMEM/F12 media without 9.7 microM Y-27632 dihydrochloride for at least two passages prior to the screen. The established cell line HOP-62 was cultured in RPMI 1640 medium, HEPES (Invitrogen, cat. 22400105) with 10% defined fetal bovine serum (HyClone Laboratories Inc., cat. SH30070.03) and 2 mM L-glutamine (Invitrogen, cat. 25030081). The pooled donor HUVEC were cultured in endothelial cell growth medium 2 (PromoCell, Heidelberg, Germany, cat. C-22011) and the hMSC were cultured in mesenchymal stem cell growth medium 2 (PromoCell, cat. C-28009). For all experiments, HUVEC and hMSC were used at passages </=5, while the malignant cell lines were used at passages </=15. […]

[1] = compound alone, run of 08/19/2021
[2] = compound alone, run of 08/26/2021
[3] = compound alone, run of 09/02/2021
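Also: drug exposure lasted seven days.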
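For viability, T/C in this document: 100% = DMSO vehicle wells and lower means fewer viable cells.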

SMILES | viability, T/C (compound 0.1 µM) | viability, T/C (compound 0.316 µM) | IC50 [1] [µM] | IC50 [2] | IC50 [3] | viability, T/C (compound 0.0316 µM) | viability, T/C (compound 0.0001 µM) | viability, T/C (compound 0.000316 µM) | viability, T/C (compound 0.00316 µM) | viability, T/C (compound 0.01 µM) | viability, T/C (compound 1 µM) | viability, T/C (compound 3.16 µM) | IC50 (curve of compound) | viability, T/C (compound 10 µM) | viability, T/C (compound 0.001 µM)
C=CC(=O)N1CCN(c2nc(=O)n(-c3c(C)ccnc3C(C)C)c3nc(-c4c(O)cccc4F)c(F)cc23)C(C)C1 (stereo not drawn) | 94.8% [middle of 16 runs] | 97.2% [middle of 16 runs] | > 10 | > 10 µM | > 10 µM | – | – | – | – | – | – | – | – | – | –
C=CC(=O)N1CCN(c2nc(OCC3CCCN3C)nc3c2CCN(c2cccc4cccc(C)c24)C3)CC1CC#N (stereo not drawn) | 94.9% [middle of 16 runs] | – | – | – | 2.01 µM [middle of 5 runs] | 91.1% [middle of 16 runs] | – | – | – | – | – | – | – | – | –
CC(=O)Nc1cccc(-n2c(=O)n(C3CC3)c(=O)c3c(Nc4ccc(I)cc4F)n(C)c(=O)c(C)c32)c1 | – | – | – | – | – | 44% [middle of 5 runs] | 95.7% [middle of 5 runs] | 99.3% [middle of 5 runs] | 85.6% [middle of 5 runs] | 72.2% [middle of 5 runs] | – | – | – | – | –
CC(=O)OC12COC1CC(O)C1(C)C(=O)C(O)C3=C(C)C(OC(=O)C(O)C(NC(=O)OC(C)(C)C)c4ccccc4)CC(O)(C(OC(=O)c4ccccc4)C21)C3(C)C (stereo not drawn) | 73.6% [middle of 5 runs] | 86.8% [middle of 5 runs] | – | – | – | 77.4% [middle of 5 runs] | – | – | – | 87.1% [middle of 5 runs] | 101% [middle of 5 runs] | 119% [middle of 5 runs] | > 3.16 µM | – | –
CC(C)NCC(C(=O)N1CCN(c2ncnc3c2C(C)CC3O)CC1)c1ccc(Cl)cc1 (stereo not drawn) | 85.2% [middle of 5 runs] | 83.1% [middle of 5 runs] | – | – | – | 94.6% [middle of 5 runs] | – | – | – | – | 77% [middle of 5 runs] | 76.1% [middle of 5 runs] | > 10 µM | 70.1% [middle of 5 runs] | –
CC(C)n1nc(-c2ccc3oc(N)nc3c2)c2c(N)ncnc21 | 50.7% [middle of 5 runs] | – | – | – | – | 67.2% [middle of 5 runs] | – | 91.3% [middle of 5 runs] | 82.9% [middle of 5 runs] | 74.3% [middle of 5 runs] | – | – | > 0.1 µM and 0.0957 µM | – | 91.3% [middle of 5 runs]
CC1(C)CCC(CN2CCN(c3ccc(C(=O)NS(=O)(=O)c4ccc(NCC5CCOCC5)c([N+](=O)[O-])c4)c(Oc4cnc5[nH]ccc5c4)c3)CC2)=C(c2ccc(Cl)cc2)C1 | 96.3% [middle of 5 runs] | 90.6% [middle of 5 runs] | – | – | – | 96.5% [middle of 5 runs] | – | – | – | – | 97.9% [middle of 5 runs] | – | – | – | –
CC1COCCN1c1cc(-c2ccnn2C)c2ccnc(-c3ccn[nH]3)c2n1 (stereo not drawn) | 83.4% [middle of 5 runs] | 78.2% [middle of 5 runs] | – | – | – | 90.3% [middle of 5 runs] | – | – | – | 99.8% [middle of 5 runs] | 84.7% [middle of 5 runs] | 86.6% [middle of 5 runs] | > 3.16 µM | – | –
CC1OCC2(CCN(c3cnc(Sc4ccnc(N)c4Cl)c(N)n3)CC2)C1N (stereo not drawn) | – | 86.6% [middle of 19 runs] | > 10 | > 10 µM | > 10 µM | 97.6% [middle of 4 runs] | – | – | – | – | – | – | > 10 µM | – | –
CCN1CCN(Cc2ccc(Nc3ncc(F)c(-c4cc(F)c5nc(C)n(C(C)C)c5c4)n3)nc2)CC1 | 81.5% [middle of 5 runs] | 88.2% [middle of 5 runs] | – | – | – | 85.5% [middle of 5 runs] | – | – | 101% [middle of 5 runs] | 86.9% [middle of 5 runs] | 95.5% [middle of 5 runs] | – | > 1 µM | – | –
CCNC(=O)CC1N=C(c2ccc(Cl)cc2)c2cc(OC)ccc2-n2c(C)nnc21 (stereo not drawn) | 90.3% [middle of 5 runs] | 84.9% [middle of 5 runs] | – | – | – | 96.8% [middle of 5 runs] | – | – | – | – | – | 79.8% [middle of 5 runs] | > 10 µM | 79.4% [middle of 5 runs] | –
CN(C)C/C=C/C(=O)Nc1cc2c(Nc3ccc(F)c(Cl)c3)ncnc2cc1O[C@H]1CCOC1 | 63.5% [middle of 5 runs] | – | – | – | – | 62.6% [middle of 5 runs] | – | 93.6% [middle of 5 runs] | 81.6% [middle of 5 runs] | 68.3% [middle of 5 runs] | – | – | > 0.1 µM | – | 82.4% [middle of 5 runs]
CNCc1ccccc1-c1csc(C(C)Nc2nc(C)nc3cc(OC)c(OC)cc23)c1 (stereo not drawn) | 84.1% [middle of 16 runs] | 79% [middle of 16 runs] | – | 1.48 µM [middle of 5 runs] | 1.4 µM [middle of 5 runs] | – | – | – | – | – | – | – | – | 0.23% [middle of 15 runs] | –
COC(=O)c1ccc2c(C(=Nc3ccc(N(C)C(=O)CN4CCN(C)CC4)cc3)c3ccccc3)c(O)[nH]c2c1 | 109% [middle of 5 runs] | – | – | – | – | 96.5% [middle of 5 runs] | – | – | – | – | – | – | 3.54 µM [middle of 5 runs] | 0.34% [middle of 5 runs] | –
COc1cc(Nc2ncc3c(n2)-c2ccc(Cl)cc2C(c2c(F)cccc2OC)=NC3)ccc1C(=O)O | 90.8% [middle of 5 runs] | 96.9% [middle of 5 runs] | – | – | – | 93.8% [middle of 5 runs] | – | – | – | – | 90.7% [middle of 5 runs] | – | > 10 µM | – | –
COc1cc(OC)cc(N(CCNC(C)C)c2ccc3ncc(-c4cnn(C)c4)nc3c2)c1 | 96.3% [middle of 4 runs] | 96.1% [middle of 4 runs] | – | – | – | 96% [middle of 4 runs] | – | – | – | – | 94% [middle of 4 runs] | 110% [middle of 4 runs] | 5.96 µM [middle of 4 runs] | 7.96% [middle of 4 runs] | –
COc1cc2nc(C)nc(NC(C)c3cc(N)cc(C(F)(F)F)c3)c2cc1OC1CCOC1 (stereo not drawn) | 86.7% [middle of 17 runs] | 86.7% [middle of 17 runs] | – | 6.52 µM [middle of 5 runs] | – | – | – | – | – | – | – | – | – | – | –
COc1cc2nccc(Oc3ccc(NC(=O)C4(C(=O)Nc5ccc(F)cc5)CC4)cc3)c2cc1OC | – | 95.7% [middle of 5 runs] | – | – | – | – | – | – | – | – | – | – | > 10 µM | – | –
Cn1nccc1Nc1nccc(-c2cc3c(s2)C(C)(C)N(CCN2CCOCC2)C3=O)n1 | 112% and 98.5% | 123% and 98.7% | – | – | – | 109% and 83.6% | – | – | – | – | 105% and 91.8% | 85.4% and 76% | > 10 µM | 73.7% and 66.2% | –
Cn1ncnc1[C@H]1c2n[nH]c(=O)c3cc(F)cc(c23)N[C@@H]1c1ccc(F)cc1 | 89.8% [middle of 5 runs] | – | – | – | – | – | – | 91.8% [middle of 5 runs] | – | 104% [middle of 5 runs] | – | – | > 0.1 µM | – | 95.2% [middle of 5 runs]
O=C(c1cc(Cc2n[nH]c(=O)c3ccccc23)ccc1F)N1CCN(C(=O)C2CC2)CC1 | – | 86.2% [middle of 5 runs] | – | – | – | 89.9% [middle of 5 runs] | – | – | – | – | – | 78.3% [middle of 5 runs] | > 10 µM | – | –
